“Also recorded” adds a separate entry of the source. Peptide text beside a SMILES is read from it. * marks the point of attachment. Cbz = O=C(OCc1ccccc1)*; CH2F = FC*
Legend:
[1] = test system: pig kidneys; assay: TUNEL staining for cell death in cold stored pig kidneys; conditions: flushed and stored at 4° C. in University of Wisconsin solution with 10 μg/mL, 72 hours
Description: (§1) Methods: TUNEL Staining and Quantification. Frozen kidney sections were fixed with 4% paraformaldehyde and stained according to standard protocols for the In Situ Cell Death Detection Kit, TMR red (Millipore Sigma). The number of DAPI positive and TUNEL positive cells were quantified using cell counter macros in ImageJ across mouse, pig, and human samples.
(§2) Murine and Porcine Kidney Recoveries. Mouse and pig kidneys were recovered using standard organ recovery protocols. Prior to flushing the abdominal cavity with preservation solution, mice and pigs were given heparin to help increase flow and prevent clotting within the system.
(§3) Mice were flushed with BAI supplemented University of Wisconsin solution (2 mg/kg total mouse weight) at time of organ recovery. Mouse kidneys were stored in the same concentration of BAI1 supplemented preservation solution that was used to flush the mice at time of organ harvest. Pig kidneys were flushed with 500 mL of University of Wisconsin solution supplemented with BAI1 at 10 μg/mL. They were then stored at 4° C. in 500 mL of University of Wisconsin solution supplemented with BAI1 at 10 μg/mL for 72 hours.

[2] = test system: human organ culture; assay: Cell death in human organ culture model (kidney)
Method: as §1
To better appreciate how kidneys respond to cold ischemia, a series of […] kidneys was biopsied at times from 12 to 72 hours of cold storage. To decreased observed cell death, a Bax inhibitor (BAI1) was tested in a human organ culture model.
To assess the extent of cell death during cold preservation, a series of eleven human kidneys were repeatedly biopsied at times from 12 to 72 hours of cold storage. […] Cell death increased over time and became apparent in marginal donors between 30-36 hours of cold storage. Human kidneys with the cell death phenotype were also shown to have distinct upregulation of metabolites (e.g. xylose, isothreonic acid, 3-hydroxy-3-methylglutaric acid, conduritol-beta-epoxide, hippuric acid, pseudo uridine, hydroxyproline dipeptide, 4-hydroxyhippuric acid) as compared to the younger, healthier cohort of organs.

[3] = test system: mouse kidneys; assay: TUNEL staining for cell death in cold stored mouse kidneys; conditions: 2 mg/kg total mouse weight in University of Wisconsin cold preservation solution, flush at organ recovery and storage, 72 hours cold storage
Description: as §1, §2
Bax KO or Wildtype mice (3× per group) were euthanized and then organs recovered following standard organ transplant procedures. […] At the proscribed time points, kidneys were snap frozen for subsequent cell death assessment by fluorescent TUNEL staining of frozen sections collected on an EVOS2 scope. Quantification of TUNEL staining was performed with custom matlab code following standard image analysis procedures.
as §3

Structure (SMILES): OC(CN1CCNCC1)Cn1c2ccc(Br)cc2c2cc(Br)ccc21 (stereo not shown) [BAI1]
- cell death during prolonged cold storage (TUNEL staining) [1]: prevents cell death
- cell death in human organ culture after a period of warm injury ([2]; after a period of warm injury): significantly decreased cell death
- cell death in human organ culture during cold storage ([2]; during cold storage): significantly decreased cell death
- cell death during prolonged cold storage (TUNEL staining) [3]: prevents cell death; also recorded: abrogates cell death

Structure (SMILES): COC(=O)C[C@H](NC(=O)[C@H](C)NC(=O)[C@@H](NC(=O)OCc1ccccc1)C(C)C)C(=O)CF [Z-VAD-FMK] (Cbz-Val-Ala-Asp(OMe)-CH2F)
- cell death during prolonged cold storage (TUNEL staining) [3]: did not appear to reduce the amount of cell death

Structure (SMILES): CN1C(=O)C(Cc2c[nH]c3ccccc23)NC1=S (stereo not shown) [necrostatin-1]
- cell death during prolonged cold storage (TUNEL staining) [3]: did not appear to reduce the amount of cell death

Structure (SMILES): CCOC(=O)c1ccc(NC2CCCCC2)c(N)c1 [ferrostatin-1]
- cell death during prolonged cold storage (TUNEL staining) [3]: did not appear to reduce the amount of cell death

Source: patent publication US20250134095A1, “COMPOSITIONS FOR ORGAN AND TISSUE PRESERVATION” (Albert Einstein College of Medicine, priority 2021, published 2025)
